Values quoted from earlier work as cited in US9808446B2, “Method for decreasing symptoms of alcohol consumption” (Alcobra Ltd., priority 2007, dated 2017).

Columns and labels:
frontoparietal cortex = conditions: guinea pigs, brain
[1] = not given; remark: listed apart in the source
[2] = long term data

mean half life in human serum ([1]; Lu Yuan et al.): about 0.8 hour
bioavailability ([1]; oral): 60-80%
oral absorption ([1]; oral): fast
half life in human serum ([1]; oral and intravenous, without appreciable differences): 40 to 60 min
SMILES: Cc1ncc(CO)c(CO)c1O.O=C1CC[C@@H](C(=O)O)N1 [Metadoxine, pyridoxol L,2-pyrrolidon-5 carboxylate]
level of GABA and acetylcholine in the frontoparietal cortex (frontoparietal cortex): increased
glutathione depletion in hepatic tissues (animal studies): prevented
oxidative stress in hepatic tissues (animal studies): reduced
increased production of fatty acid esters in the liver (during chronic alcohol intake): inhibited
safety for use by humans [2]: safe
